Experimental data: patent US11253521B2, “3-hydroxy-quinazoline-2,4-dione derivatives and their use as nuclease modulators” (Ludwig Institute for Cancer Research Ltd, priority 2015, dated 2022)

Biological target: recombinant full-length FEN-1 (Homo sapiens (Human), UniProt P39748)
Test: Fluorogenic biochemical (enzymatic) assay, FEN-1
Conditions: 200 nM DNA flap substrate, 50 mM Tris pH 8.0, 10 mM MgCl2, 2-4 hours at 25° C. or 37° C., read-out: SMD FEN-1 IC50
Method: Fluorogenic biochemical assays used recombinant full-length FEN-1 or catalytic domains of Exo1, XPG or GEN1 and 200 nM of a DNA substrate (formed by annealing three oligonucleotides—quencher (5′-CACGTTGACTACCGCTCAATCCTGACGAACACATC-BHQ2), flap (5′-TAMRA-GA TGTCAAGCAGTCCTAACTTTGAGGCAGAGTCCGC) and template (5′-GC GGACTCTGCCTCAAGACGGTAGTCAACGTG-3′) (PMID: 21062821)) in 50 mM Tris pH 8.0, 10 mM MgCl2, 1 mM DTT, and 0.01% Tween-20. Inhibitors arrayed in dose response were added from DMSO stocks (using a V&P 384-pintool head) to the enzyme solution in low volume, black polystyrene 384-well plates (Corning #3677) 15 minutes prior to the addition of the DNA substrate. Reactions were allowed to proceed for 2-4 hours at 25° C. or 37° C. Fluorescence data (Excitation: 530 nm/10 nm bandwidth; Emission: 590 nm/20 nm bandwith) were measured with an Infinite M1000 plate reader (Tecan).

Sequence of recombinant full-length FEN-1 (P39748 whole entry): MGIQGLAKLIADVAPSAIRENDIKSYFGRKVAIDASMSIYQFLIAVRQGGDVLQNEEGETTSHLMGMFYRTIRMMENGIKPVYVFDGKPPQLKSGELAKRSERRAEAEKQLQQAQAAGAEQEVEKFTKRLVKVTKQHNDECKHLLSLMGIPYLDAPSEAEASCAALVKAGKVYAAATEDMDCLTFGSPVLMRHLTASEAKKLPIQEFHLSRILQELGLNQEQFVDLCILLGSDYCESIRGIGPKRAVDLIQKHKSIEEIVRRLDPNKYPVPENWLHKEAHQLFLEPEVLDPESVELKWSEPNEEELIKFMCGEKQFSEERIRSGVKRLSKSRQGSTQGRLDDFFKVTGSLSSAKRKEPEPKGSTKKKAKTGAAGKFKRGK

Row | IC50 [nM] | Compound
1 | 35.4 | Nc1cccc(S(=O)(=O)c2cccc3c(=O)n(O)c(=O)[nH]c23)c1 [Compound 49]
2 | 42 | O=c1[nH]c2c(F)cccc2c(=O)n1O [Compound 36]
3 | 14.9 | CN(C)c1cccc(S(=O)(=O)c2cccc3c(=O)n(O)c(=O)[nH]c23)c1 [Compound 64]
4 | 106 | O=c1[nH]c2ncccc2c(=O)n1O [Compound 14]
5 | 160 | O=c1[nH]c2cc(S(=O)(=O)Cc3ccccc3)ccc2c(=O)n1O [Compound 29]
6 | 28.9 | O=c1[nH]c2c(S(=O)(=O)c3cccc(Nc4ccccn4)c3)cccc2c(=O)n1O [Compound 62]
7 | 16.5 | COc1cccc(S(=O)(=O)c2cccc3c(=O)n(O)c(=O)[nH]c23)c1 [Compound 42]
8 | 241 | O=c1[nH]c2ccccc2c(=O)n1O [Compound 12]
9 | 97.3 | O=c1[nH]c2cc(Cc3ccccc3)ccc2c(=O)n1O [Compound 27]
10 | 14 | O=c1[nH]c2c(S(=O)(=O)c3ccc(Br)cc3)cccc2c(=O)n1O [Compound 45]
11 | 14.1 | CNC(=O)Nc1cccc(S(=O)(=O)c2cccc3c(=O)n(O)c(=O)[nH]c23)c1 [Compound 59]
12 | 19.6 | O=c1[nH]c2cccc(Br)c2c(=O)n1O [Compound 35]
13 | 171 | O=c1[nH]c2cc(F)ccc2c(=O)n1O [Compound 37]
14 | 20.8 | O=c1[nH]c2cccc(Cl)c2c(=O)n1O [Compound 11]
15 | 392 | O=c1[nH]c2nc(-c3ccccc3)ccc2c(=O)n1O [Compound 16]
16 | 79.5 | O=c1[nH]c2cc(S(=O)(=O)c3ccccc3)ccc2c(=O)n1O [Compound 22]
17 | 216 | O=c1[nH]c2ccc(F)cc2c(=O)n1O [Compound 38]
18 | 9.3 | Cc1cccc(S(=O)(=O)c2ccc(Cl)c3c(=O)n(O)c(=O)[nH]c23)c1 [Compound 48, 5-chloro-3-hydroxy-8-(m-tolylsulfonyl)quinazoline-2,4(1H,3H)-dione]
19 | 24.2 | Cc1ccc(S(=O)(=O)c2cccc3c(=O)n(O)c(=O)[nH]c23)cc1 [Compound 31]
20 | 7.6 | CC(=O)Nc1cc(NC(C)=O)cc(S(=O)(=O)c2cccc3c(=O)n(O)c(=O)[nH]c23)c1 [Compound 73]
21 | 134 | O=c1[nH]c2nc(S(=O)(=O)c3ccccc3)ccc2c(=O)n1O [Compound 19]
22 | 9.3 | O=c1[nH]c2c(S(=O)(=O)c3cc(O)cc(O)c3)cccc2c(=O)n1O [Compound 66]
23 | 12.9 | O=c1[nH]c2c(S(=O)(=O)c3cccc(Br)c3)cccc2c(=O)n1O [Compound 46]
24 | 54.4 | O=c1[nH]c2cccc(F)c2c(=O)n1O [Compound 39]

Row | IC50 [nM] | Compound
25 | 9.4 | COc1ccc(S(=O)(=O)c2cccc(C)c2)c2[nH]c(=O)n(O)c(=O)c12 [Compound 80]
26 | 113 | O=c1[nH]c2c(-c3ccccc3)cccc2c(=O)n1O [Compound 18]
27 | 13.7 | Cc1cccc(S(=O)(=O)c2cc(F)cc3c(=O)n(O)c(=O)[nH]c23)c1 [Compound 53]
28 | 16 | O=c1[nH]c2c(S(=O)(=O)c3cccc(Nc4ncccn4)c3)cccc2c(=O)n1O [Compound 60]
29 | 13.3 | O=c1[nH]c2c(S(=O)(=O)c3cccc(C(F)(F)F)c3)cccc2c(=O)n1O [Compound 41]
30 | 9.8 | O=c1[nH]c2c(S(=O)(=O)c3cccc(F)c3)ccc(Cl)c2c(=O)n1O [Compound 70]
31 | 37.3 | O=c1[nH]c2c(-c3ccccc3)ccc(Cl)c2c(=O)n1O [Compound 26]
32 | 9.9 | O=c1[nH]c2c(S(=O)(=O)c3ccccc3)ccc(Cl)c2c(=O)n1O [Compound 43]
33 | 5.6 | O=c1[nH]c2c(S(=O)(=O)c3ccc4[nH]cnc4c3)cccc2c(=O)n1O [Compound 72]
34 | 12.8 | COC(=O)Nc1cccc(S(=O)(=O)c2cccc3c(=O)n(O)c(=O)[nH]c23)c1 [Compound 58]
35 | 11 | O=c1[nH]c2nc(Cc3ccccc3)ccc2c(=O)n1O [Compound 23]
36 | 10 | O=c1[nH]c2c(S(=O)(=O)c3cccc(F)c3)cccc2c(=O)n1O [Compound 69]
37 | 23.8 | O=c1[nH]c2c(S(=O)(=O)c3ccccc3)cccc2c(=O)n1O [Compound 21]
38 | 11.6 | O=c1[nH]c2c(S(=O)(=O)c3cccs3)cccc2c(=O)n1O [Compound 75]
39 | 15.7 | O=c1[nH]c2c(S(=O)(=O)c3cccc(O)c3)cccc2c(=O)n1O [Compound 47]
40 | 8.5 | Cc1cc(F)cc(S(=O)(=O)c2ccc(Cl)c3c(=O)n(O)c(=O)[nH]c23)c1 [Compound 77]
41 | 6.6 | COc1ccc(S(=O)(=O)c2ccccc2)c2[nH]c(=O)n(O)c(=O)c12 [Compound 78]
42 | 2830 | O=c1c2cccnc2n(-c2ccccc2)c(=O)n1O [Compound 20]
43 | 19.2 | Cc1cccc(S(=O)(=O)c2c(F)ccc3c(=O)n(O)c(=O)[nH]c23)c1 [Compound 51]
44 | 94.4 | O=c1[nH]c2c(S(=O)(=O)c3ccccc3)c(F)ccc2c(=O)n1O [Compound 68]
45 | 16.9 | NC(=O)Nc1cccc(S(=O)(=O)c2cccc3c(=O)n(O)c(=O)[nH]c23)c1 [Compound 63]
46 | 15.6 | O=c1[nH]c2c(S(=O)(=O)c3ccccc3)cc(F)cc2c(=O)n1O [Compound 40]
47 | 16.5 | CC(=O)Nc1cccc(S(=O)(=O)c2cccc3c(=O)n(O)c(=O)[nH]c23)c1 [Compound 55]
48 | 1640 | O=c1[nH]c2cc(S(=O)(=O)Cc3ccccc3)cnc2c(=O)n1O [Compound 25]

Row | IC50 [nM] | Compound
49 | 17 | COc1cc(OC)cc(S(=O)(=O)c2cccc3c(=O)n(O)c(=O)[nH]c23)c1 [Compound 65]
50 | 26.1 | O=c1[nH]c2c(S(=O)(=O)c3ccc(Cl)cc3)cccc2c(=O)n1O [Compound 33]
51 | 77.2 | O=c1[nH]c2c(Cc3ccccc3)ccc(Cl)c2c(=O)n1O [Compound 28]
52 | 26.4 | O=c1[nH]c2c(S(=O)(=O)c3cccc(Cl)c3)cccc2c(=O)n1O [Compound 34]
53 | 9.4 | Cc1cc(Cl)cc(S(=O)(=O)c2ccc(Cl)c3c(=O)n(O)c(=O)[nH]c23)c1 [Compound 76]
54 | 356 | O=c1[nH]c2cc(-c3ccccc3)ccc2c(=O)n1O [Compound 15]
55 | 11.6 | Cc1cc(C)cc(S(=O)(=O)c2cccc3c(=O)n(O)c(=O)[nH]c23)c1 [Compound 50]
56 | 18.4 | CN(C)c1cc(N(C)C)cc(S(=O)(=O)c2cccc3c(=O)n(O)c(=O)[nH]c23)c1 [Compound 81]
57 | 17.8 | Cc1cccc(S(=O)(=O)c2ccc(F)c3c(=O)n(O)c(=O)[nH]c23)c1 [Compound 67]
58 | 14.8 | N#Cc1cccc(S(=O)(=O)c2cccc3c(=O)n(O)c(=O)[nH]c23)c1 [Compound 56]
59 | 1310 | O=c1[nH]c2ccncc2c(=O)n1O [Compound 13]
60 | 6.7 | O=c1[nH]c2c(S(=O)(=O)c3cc(F)cc(F)c3)ccc(Cl)c2c(=O)n1O [Compound 71]
61 | 3340 | Cn1c(=O)n(O)c(=O)c2cccnc21 [Compound 17]
62 | 10.9 | Cc1cccc(S(=O)(=O)c2cc(Cl)cc3c(=O)n(O)c(=O)[nH]c23)c1 [Compound 44]
63 | 53.8 | O=c1[nH]c2c(Cc3ccccc3)cccc2c(=O)n1O [Compound 24]
64 | 129 | O=c1[nH]c2c(S(=O)(=O)Cc3ccccc3)cccc2c(=O)n1O [Compound 30]
65 | 139 | Cc1cccc(S(=O)(=O)c2c(Cl)ccc3c(=O)n(O)c(=O)[nH]c23)c1 [Compound 52]
66 | 8.5 | Nc1cc(N)cc(S(=O)(=O)c2cccc3c(=O)n(O)c(=O)[nH]c23)c1 [Compound 74]
67 | 16.6 | O=c1[nH]c2c(S(=O)(=O)c3cccs3)ccc(Cl)c2c(=O)n1O [Compound 79]
68 | 14.5 | Cc1cccc(S(=O)(=O)c2cccc3c(=O)n(O)c(=O)[nH]c23)c1 [Compound 32]
69 | 18.1 | O=c1[nH]c2c(S(=O)(=O)c3cc(Cl)cc(Cl)c3)cccc2c(=O)n1O [Compound 54]
70 | 12.8 | O=c1[nH]c2c(S(=O)(=O)c3cc(F)cc(F)c3)cccc2c(=O)n1O [Compound 57]
71 | 16.6 | O=c1[nH]c2c(S(=O)(=O)c3cc(Br)cc(Br)c3)cccc2c(=O)n1O [Compound 61]
